According to patent EP0003794B1, “Testosterone esters, process for their preparation and pharmaceutical compositions containing them” (priority 1978, dated 1979):

Legend:
[1] = type: in vivo, Paviane; conditions: 50 mg i.m. in 1 ml Rizinusöl/Benzylbenzoat (6:4), female baboons
Experimental: Die gleichmäßige, anhaltende Bereitstellung von Testosteron aus den erfindungsgemäßen Estern kann durch Bestimmung der Testosteronkonzentration im Plasma mittels Radioimmunoassay nachgewiesen werden.
Zu diesem Zweck erhielten zwei weibliche Paviane je 50 mg Testosteron-O-hexadecanoylglykolat in 1 ml Rizinusöl/Benzylbenzoat (6:4) intramuskular. Die Testosteron-Plasmaspiegel lagen zwischen dem 2. und 40. Tag im Bereich zwischen 15 und 25 ng/ml Plasma.

[2] = Recent Progress in Hormone Research, Volume XIII, 389-396, Fig. 1 and Fig. 4; cited from earlier work
[3] = Testosterone plasma concentration (radioimmunoassay) and bioavailability after oral application in peanut oil, female dogs; i.m. testosterone as the reference; type: in vivo, Hunden
Experimental: Es wurde der zeitliche Verlauf der Testosteronkonzentration im Plasma von weiblichen Hunden von ca. 10 kg Gewicht nach oraler Applikation von 50 mg Testosteron-0-hexadecanoylglykolat (= 25 mg Testosteron) und von 40 mg Testosteronundecylat (= 25 mg Testosteron) im Vergleich zur […] Applikation von 25 mg Testosteron gemessen. Die Testosteronbestimmung im Plasma erfolgte mittels Radioimmunoassay. Zur Applikation wurden die geprüften Substanzen in Erdnußöl gelöst.
Die Bioverfügbarkeit wurde berechnet als Quotient der Flächen unter der Testosteronplasmaspiegelkurve (0-8 Stunden) nach oraler Applikation der geprüften Substanzen und der Fläche unter der Testosteronplasinaspiegelkurve nach intramuskulärer Applikation von Testosteron.

CCCCCCCCCCCCCCCC(=O)OCC(=O)O[C@H]1CC[C@H]2[C@@H]3CCC4=CC(=O)CC[C@]4(C)[C@H]3CC[C@]12C [Testosteron-O-hexadecanoylglykolat]
Freisetzung des Testosterons aus dem Depot [1]: fast vollständig freigesetzt

CCCCCCCCCCC(=O)O[C@H]1CC[C@H]2[C@@H]3CCC4=CC(=O)CC[C@]4(C)[C@H]3CC[C@]12C [Testosteronundecylat]
Wirkung (Verlauf) im Vergleich zu Testosteronönanthat [2]: etwas gleichmäßigere Wirkung als Testosteronönanthat

CCCCCCC(=O)O[C@H]1CC[C@H]2[C@@H]3CCC4=CC(=O)CC[C@]4(C)[C@H]3CC[C@]12C [Testosteronönanthat]
Wirkung (Verlauf) im Vergleich zu Testosteronönanthat [2]: besonders hohe initiale Wirkung zeigt, die relativ rasch abfällt

CCCCCCCCCC(=O)CC(=O)O[C@H]1CC[C@H]2[C@@H]3CCC4=CC(=O)CC[C@]4(C)[C@H]3CC[C@]12C [Testosteroncaprinoylacetat]
Wirkung (Verlauf) im Vergleich zu Testosteronönanthat [2]: über 6 Wochen etwas gleichmäßigere aber insgesamt geringere Wirkung

C[C@]12CC[C@H]3[C@@H](CCC4=CC(=O)CC[C@@]43C)[C@@H]1CC[C@@H]2O [Testosteron (T), Testosteron]
AUC at 8 h ([3]; dog, plasma, oral, in Erdnußöl, dose ≙ 25 mg Testosteron, female dogs ca. 10 kg, testosterone by radioimmunoassay, read-out: Fläche unter Plasma-spiegel (0 – 8 h)): 10.6 ng·h/mL
Bioverfügbarkeit bezogen auf i.m. Applikation ([3]; in vivo): 1,29%
